Values quoted from earlier work as cited in patent publication US20050118594A1, “Enzymes” (priority 2001, published 2005).

[1] = mild hypertriglyceridemia (e.g., triglycerides <400 mg/dl)

CC(C)(Oc1ccc(C2CC2(Cl)Cl)cc1)C(=O)O (centres unmarked) [ciprofibrate]
lowering of VLDL levels (second generation agents, compared with gemfibrozil): to a degree similar to that produced by gemfibrozil

Cc1ccc(C)c(OCCCC(C)(C)C(=O)O)c1 [gemfibrozil]
decrease in triglyceride levels [1]: ≥ 50% | increase in HDL cholesterol concentrations [1]: 15-25% | change in LDL cholesterol levels (mild hypertriglyceridemia, particularly in subjects with familial combined hyperlipidemia): either no change or an increase | decrease in LDL levels (patients with heterozygous familial hypercholesterolemia): 10%
